test system: AEA cellular uptake (U937 cells); assay: [3H]-AEA cellular uptake inhibition in U937 cells; type: cell-based; settings: Homo sapiens, U-937, U937 cells, final 100 nM AEA with 0.5 nM [3H]-AEA, 15 min at 37° C.; read-out: AEA uptake IC50
Procedure: [^3H]-AEA Cellular Uptake
Screening for AEA cellular uptake inhibition was performed in a semi-automated procedure: Pipetting and washing steps were performed by a Biomek3000 laboratory workstation. First, required amounts of U937 cells were centrifuged at 100×g for 5 min and resuspended in RPMI (37° C.) to a final concentration of 2×10^6 cells/mL. Then, 250 μL of cell suspension (0.5×10^6 cells per sample) were transferred into AquaSil™ silanized glass vials (Chromacol 1.1-MTV) in 96-well format. After addition of 5 μL vehicle (DMSO) or compounds the cells were incubated at 37° C. for 15 min. As positive controls OMDM-2 and UCM707 were used at 10 μM in each run. The ETI-T compounds were measured at up to 7 concentrations in triplicates from 100 pM-100 μM. After pre-incubation, a mixture of 0.5 nM [ethanolamine-1-^3H]-AEA, (60 Ci/mmol) and 99.5 nM of cold AEA (final 100 nM) was added and samples were incubated at 37° C. for another 15 min. The reaction was stopped by rapid filtration over UniFilter-96 GF/C filters (PerkinElmer) pre-soaked with PBS 0.25% BSA. Cells were washed three times with 100 μL ice-cold PBS buffer containing 1% fatty acid free BSA. After drying, 45 μL MicroScint 20 scintillation cocktail (PerkinElmer, Waltham, Mass., US) was added to the wells and the plate was sealed. Radioactivity was measured by liquid scintillation counting on a PerkinElmer Wallac Trilux MicroBeta 1450 during 2 min. Non-specific binding of [^3H]AEA (100 nM) to the glass vials was never higher than 10%. IC50 values were calculated by GraphPad® by non-linear regression using the built-in log(inhibitor) vs. response-variable slope (four parameters) function.

IC50 | Compound
12500 nM | CCCCCCCCCCCCN1C(=O)/C(=C/c2ccc(CO)cc2)S/C1=N\c1ccc(F)cc1 [22_B_V, (2Z,5Z)-5-(4-(hydroxymethyl)benzylidene)-2-(4-fluorophenylimino)-3-dodecylthiazolidin-4-one]
879 nM | O=C1/C(=C/c2ccc3[nH]ccc3c2)S/C(=N\c2ccccc2)N1Cc1ccco1 [03_N_M, (2Z,5Z)-5-((1H-indol-5-yl)methylene)-3-((furan-2-yl)methyl)-2-(phenylimino)thiazolidin-4-one]
1190 nM | O=C1/C(=C/c2ccccc2)S/C(=N\Cc2ccccc2)N1CCc1ccccc1 [23_C_O, (2Z,5Z)-5-benzylidene-2-(benzylimino)-3-phenethylthiazolidin-4-one]
812 nM | O=C1/C(=C/c2ccc(CO)cc2)S/C(=N\CCc2ccccc2)N1c1ccccc1 [22_U_N, (2Z,5Z)-5-(4-(hydroxymethyl)benzylidene)-2-(phenethylimino)-3-phenylthiazolidin-4-one]
500 nM | O=C1/C(=C/c2ccc(CO)cc2)S/C(=N\Cc2ccc(F)cc2)N1c1ccccc1 [22_P_N, (2Z,5Z)-5-(4-(hydroxymethyl)benzylidene)-2-(4-fluorobenzylimino)-3-phenylthiazolidin-4-one]
713 nM | COc1ccc(C/N=C2\S/C(=C\c3ccc(CO)cc3)C(=O)N2c2ccccc2)cc1 [22_Q_N, (2Z,5Z)-5-(4-(hydroxymethyl)benzylidene)-2-(4-methoxybenzylimino)-3-phenylthiazolidin-4-one]
515 nM | Cn1ncc2cc(/C=C3\S/C(=N\c4ccccc4)N(c4ccccc4)C3=O)ccc21 [compound 28, (2Z,5Z)-5-((1-methyl-1H-indazol-5-yl)methylene)-3-phenyl-2-(phenylimino)thiazolidin-4-one]
692 nM | COCc1cccc(/C=C2\S/C(=N\Cc3ccccc3)N(CCCc3ccccc3)C2=O)c1 [15_C_K, (2Z,5Z)-5-(3-(methoxymethyl)benzylidene)-2-(benzylimino)-3-(3-phenylpropyl)thiazolidin-4-one]
1020 nM | O=C1/C(=C/c2ccc3[nH]cnc3c2)S/C(=N\Cc2ccc(F)cc2)N1c1ccccc1 [04_P_N, (2Z,5Z)-5-((1H-benzo[d]imidazol-5-yl)methylene)-2-(4-fluorobenzylimino)-3-phenylthiazolidin-4-one]
564 nM | O=C1/C(=C/c2ccc3[nH]ccc3c2)S/C(=N\Cc2ccccc2)N1CCCc1ccccc1 [03_C_K, (2Z,5Z)-5-((1H-indol-5-yl)methylene)-2-(benzylimino)-3-(3-phenylpropyl)thiazolidin-4-one]
2640 nM | COCc1cccc(/C=C2\S/C(=N\Cc3ccccc3Cl)N(c3ccccc3)C2=O)c1 [15_T_N, (2Z,5Z)-2-(2-chlorobenzylimino)-5-(3-(methoxymethyl)benzylidene)-3-phenylthiazolidin-4-one]
1560 nM | O=C1/C(=C/c2ccc(CO)cc2)S/C(=N\Cc2ccccc2)N1CCc1ccccc1 [15_C_O, (2Z,5Z)-5-(4-(hydroxymethyl)benzylidene)-2-(benzylimino)-3-phenethylthiazolidin-4-one]
419 nM | O=C1/C(=C/c2ccc3c(c2)OCCO3)S/C(=N\c2ccc(F)cc2)N1c1ccccc1 [24_B_N, (2Z,5Z)-2-(4-fluorophenylimino)-5-((2,3-dihydrobenzo[b][1,4]dioxin-6-yl)methylene)-3-phenylthiazolidin-4-one]
1030 nM | COCc1cccc(/C=C2\S/C(=N\c3ccccc3)N(c3ccccc3)C2=O)c1 [compound 15, (2Z,5Z)-5-(3-(methoxymethyl)benzylidene)-3-phenyl-2-(phenylimino)thiazolidin-4-one]
> 10000 nM | COCc1cccc(/C=C2\S/C(=N\Cc3ccc(C(C)(C)C)cc3)N(c3ccccc3)C2=O)c1 [15_R_N, (2Z,5Z)-5-(3-(methoxymethyl)benzylidene)-2-(4-tert-butylbenzylimino)-3-phenylthiazolidin-4-one]
731 nM | O=C1/C(=C/c2ccc3[nH]ccc3c2)S/C(=N\c2ccccc2)N1c1ccccc1 [compound 03, (2Z,5Z)-5-((1H-indol-5-yl)methylene)-3-phenyl-2-(phenylimino)thiazolidin-4-one]
> 10000 nM | O=C1/C(=C/c2ccc(CO)cc2)S/C(=N\Cc2ccccc2Cl)N1c1ccccc1 [22_T_N, (2Z,5Z)-2-(2-chlorobenzylimino)-5-(4-(hydroxymethyl)benzylidene)-3-phenylthiazolidin-4-one]
993 nM | CC(C)CN1C(=O)/C(=C/c2ccc3ncsc3c2)S/C1=N\c1ccc(F)cc1 [32_B_X, (2Z,5Z)-2-(4-fluorophenylimino)-5-((benzo[d]thiazol-6-yl)methylene)-3-isobutylthiazolidin-4-one]
760 nM | Cc1ccc(N2C(=O)/C(=C/c3ccc4[nH]ccc4c3)S/C2=N\c2ccc(F)cc2)cc1 [03_B_A, (2Z,5Z)-5-((1H-indol-5-yl)methylene)-2-(4-fluorophenylimino)-3-p-tolylthiazolidin-4-one]
598 nM | COc1ccc(C/N=C2\S/C(=C\c3ccccc3)C(=O)N2c2ccccc2)cc1 [23_Q_N, (2Z,5Z)-2-(4-methoxybenzylimino)-5-benzylidene-3-phenylthiazolidin-4-one]
1140 nM | O=C1/C(=C/c2ccc3[nH]cnc3c2)S/C(=N\Cc2ccccc2)N1CCCc1ccccc1 [04_C_K, (2Z,5Z)-5-((1H-benzo[d]imidazol-5-yl)methylene)-2-(benzylimino)-3-(3-phenylpropyl)thiazolidin-4-one]
1400 nM | O=C1/C(=C/c2ccc3[nH]cnc3c2)S/C(=N\CCc2ccccc2)N1c1ccccc1 [04_U_N, (2Z,5Z)-5-((1H-benzo[d]imidazol-5-yl)methylene)-2-(phenethylimino)-3-phenylthiazolidin-4-one]
10400 nM | O=C1/C(=C/c2ccc(CO)cc2)S/C(=N\Cc2ccccc2)N1Cc1ccccc1 [22_C_C, (2Z,5Z)-5-(4-(hydroxymethyl)benzylidene)-3-benzyl-2-(benzylimino)thiazolidin-4-one]
861 nM | O=C1/C(=C/c2ccc3[nH]cnc3c2)S/C(=N\Cc2ccccc2)N1c1ccc(F)cc1 [04_C_B, (2Z,5Z)-5-((1H-benzo[d]imidazol-5-yl)methylene)-2-(benzylimino)-3-(4-fluorophenyl)thiazolidin-4-one]
1130 nM | CC(C)CN1C(=O)/C(=C/c2ccccc2)S/C1=N\c1ccc(F)cc1 [23_B_X, (2Z,5Z)-2-(4-fluorophenylimino)-5-benzylidene-3-isobutylthiazolidin-4-one]

same assay, conditions: Homo sapiens, U-937, U937 cells, final 100 nM AEA with 0.5 nM [3H]-AEA, 15 min at 37° C.; read-out: AEA uptake inhibition IC50

IC50 | Compound
3180 nM | COc1ccc(/C=C2\S/C(=N\c3ccccc3)N(Cc3ccco3)C2=O)cc1
5420 nM | O=C1/C(=C/c2ccccc2)S/C(=N\c2ccccc2)N1Cc1ccccc1
7180 nM | COc1ccc(/C=C2\S/C(=N\c3ccccc3)N(c3ccc(OC)cc3)C2=O)cc1
7100 nM | O=C1/C(=C/c2ccc3nccnc3c2)S/C(=N\c2ccccc2)N1c1ccccc1
2300 nM | O=C1/C(=C/c2ccc3cc[nH]c3c2)S/C(=N\c2ccccc2)N1c1ccccc1
3240 nM | Cc1ccc(/N=C2\S/C(=C\c3ccccc3)C(=O)N2c2ccccc2)cc1
440 nM | COc1ccc(/C=C2\S/C(=N\Cc3ccccc3)N(c3ccccc3)C2=O)cc1
257 nM | O=C1/C(=C/c2ccc(CO)cc2)S/C(=N\Cc2ccccc2)N1c1ccccc1 [drawing 142]
1690 nM | COCc1cccc(/C=C2\S/C(=N\Cc3ccccc3)N(c3ccccc3)C2=O)c1 [drawing 139]
2780 nM | O=C1/C(=C/c2ccccc2)S/C(=N\c2ccccc2)N1c1ccccc1
2290 nM | COc1ccc(/C=C2\S/C(=N\c3ccccc3)N(Cc3ccccc3)C2=O)cc1
291 nM | O=C1/C(=C/c2ccc3ncsc3c2)S/C(=N\c2ccccc2)N1c1ccccc1 [drawing 129]
5560 nM | O=C1/C(=C/c2ccc3[nH]c(=O)oc3c2)S/C(=N\c2ccccc2)N1c1ccccc1
515 nM | Cn1ncc2cc(/C=C3\S/C(=N\c4ccccc4)N(c4ccccc4)C3=O)ccc21 [drawing 126]
180 nM | O=C1/C(=C/c2ccccc2)S/C(=N\Cc2ccccc2)N1c1ccccc1 [drawing 130]
1590 nM | Cc1ccc(/N=C2\S/C(=C\c3ccc4[nH]cnc4c3)C(=O)N2c2ccccc2)nc1 [drawing 146]
2140 nM | O=C1/C(=C/c2ccc3[nH]cnc3c2)S/C(=N\Cc2ccccc2)N1c1ccccc1
1090 nM | CCCCN1C(=O)/C(=C/c2ccc(CO)cc2)S/C1=N\c1ccccc1 [drawing 158]

same assay, conditions: U937 cells, final 100 nM AEA with 0.5 nM [3H]-AEA, 15 min at 37° C.; read-out: AEA uptake IC50

IC50 | Compound
10500 nM | CCCCCCCCCCCCN1C(=O)/C(=C/c2ccc(CO)cc2)S/C1=N\c1ccc(F)cc1 [23_A_V, (2Z,5Z)-5-(4-(hydroxymethyl)benzylidene)-2-(4-fluorophenylimino)-3-dodecylthiazolidin-4-one]
